Read-outs that look alike come from different tables or passages of the source.
Assays:
[1] = system: cultured human keratinocytes; test: PPAR-beta/delta mRNA in keratinocytes treated with inflammatory stimuli (Northern blot); format: cell-based; settings: LPS; IL1-beta 50 ng/ml; TNF-alpha 100 ng/ml; UV-B 30 mJ/cm^2
Description: Second-passage keratinocytes isolated from newborn foreskins were cultured in serum-free keratinocyte growth medium (KGM; Clonetics, San Diego, Calif., USA). […] Control keratinocytes were treated with vehicle (0.05%) ethanol, or sham irradiated. UV exposure was performed in phosphate buffered saline which was replaced by serum free KGM after irradiation. For cytokine treatment, 0.1% bovine serum albumin was added to the medium.
(§1) PolyA RNA was purified using oligo(dT) cellulose (Amersham Pharmacia). RNA was electrophoresed through 1% agarose gels containing 2.2 M formaldehyde, and RNA integrity was visualized by ethidium bromide staining. The RNA was then transferred to a nylon membrane and blots were hybridized overnight at 65° C. with the appropriate ^32P-labeled cDNA probes. Probes were ^32P-labeled by random priming. Washes were performed in 0.1% SSC and 0.1 SDS for 20 minutes at room temperature and at 65° C., respectively. Autoradiography was performed at −70° C. Blots were probed with GAPDH to control for normal loading. Bands of the correct size were quantified by densitometry using Quantityone software (Bio-Rad Laboratories, Inc., Hercules, Calif., USA).

ears of CD-1 mice = test: TPA-induced irritant contact dermatitis, ear thickness; format: in vivo, mouse; settings: for effect on TPA induced increase in ear thickness: GW1514 4 mM in acetone, topical, 45 minutes and 4 hours after TPA, FIG. 9
Description: TPA was applied to the inner and outer surface of the left ears of male mice. The right ears were treated with vehicle alone (acetone). […] Ear thickness was measured with a digital caliper (Mitutoyo Corp., Tokyo, Japan).

PPAR-alpha [2] = target: T1, PPAR-alpha (Homo sapiens, UniProt Q07869); settings: known cross-reactive PPAR agonists; cited from earlier work
T1 sequence (Q07869 1-468): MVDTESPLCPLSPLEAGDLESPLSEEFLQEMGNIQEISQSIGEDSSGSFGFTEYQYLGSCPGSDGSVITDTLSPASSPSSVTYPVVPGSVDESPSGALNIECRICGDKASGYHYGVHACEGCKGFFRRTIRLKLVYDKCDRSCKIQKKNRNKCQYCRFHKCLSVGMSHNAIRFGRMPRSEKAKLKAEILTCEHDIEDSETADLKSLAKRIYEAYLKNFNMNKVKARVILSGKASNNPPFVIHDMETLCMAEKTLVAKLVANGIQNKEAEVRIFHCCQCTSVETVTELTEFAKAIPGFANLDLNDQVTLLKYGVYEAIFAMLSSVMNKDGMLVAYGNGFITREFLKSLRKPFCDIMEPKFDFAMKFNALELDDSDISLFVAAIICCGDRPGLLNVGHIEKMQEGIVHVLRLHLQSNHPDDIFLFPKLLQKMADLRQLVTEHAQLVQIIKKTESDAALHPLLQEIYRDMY

[3] = system: epidermis of PPARα−/− and PPARα+/+ mice; test: Topical treatment of PPAR-alpha knockout and wild type mice: filaggrin/loricrin immunohistochemistry; format: in vivo, mouse; settings: 4 mM topical twice a day for 6 days
Description: The epidermis of PPARα knockout (PPARα−/−) mice, as well as the epidermis of wild type(PPARα+/+) mice was treated with topical applications of GW1514. Expression of the in vivo differentiation markers loricrin and filaggrin was measured by immunohistochemical staining following treatment.
PPAR-alpha−/−mice in a mixed C57BL/6 and Sv129 background were compared with age matched C57BL/6 and Sv129 wild type controls. […] At the conclusion of the experiment, animals were sacrificed. Skin samples were taken and fixed with 4% formaldehyde in phosphate-buffered saline (PBS) and embedded in paraffin. Sections (6 μm) were collected on microscope slides and used for immunohistochemistry. Photographs were taken with a Zeiss microscope and digital images were captured and assembled by appropriate software. Fillagrin and loricrin protein expression were detected by immunohistochemistry using antibodies purchased from BabCo (Richmond, Calif.).

[4] = system: normal epidermis of hairless mice; test: Topical treatment of normal epidermis: filaggrin/loricrin immunohistochemistry and PCNA staining; format: in vivo, mouse
From the text: At the conclusion of the experiment the animals were sacrificed. Mouse skin samples were fixed with 4% formaldehyde in phosphate-buffered saline (PBS) and embedded in paraffin. Sections (6 μm) were collected on microscope slides and used for immunohistochemistry. Photographs were taken with a Zeiss microscope and digital images were captured and assembled by appropriate software. Fillagrin and loricrin protein expression were detected by immunohistochemistry using antibodies purchased from BabCo (Richmond, Calif.). Proliferating keratinocytes were quantified in sections by staining with biotinylated anti-proliferating cell nuclear antigen (PCNA) antibody (CalTag Laboratories, Burlingame, Calif.).

[5] = system: cultured human keratinocytes; test: Keratinocyte differentiation in vitro, mRNA levels by Northern blot; format: cell-based
Description: Therefore, to determine if GW1514 could stimulate keratinocyte differentiation, in vitro changes in the levels involucrin and transglutaminase I mRNA, and involucrin protein expression were determined when cells were cultured in the presence of GW1514. In addition, levels of PPAR-betaldelta mRNA were compared in cells treated with GW1514 versus untreated controls.
(§2) Second-passage keratinocytes isolated from newborn foreskins were cultured in serum-free keratinocyte growth medium (KGM; Clonetics, San Diego, Calif., USA). […] Poly-A mRNA was isolated and transglutaminase I, involucrin and PPAR-beta/delta mRNA levels were measured by Northern blot analysis (FIG. 1).
as §1, with “QuantityOne” for “Quantityone”, “Laboratories” for “Laboratories,”

PPAR-alpha [6] = target: T1, PPAR-alpha; test: PPAR subtype activation (statement in description); settings: "it has now been discovered"; no method given
[7] = system: cultured human keratinocytes; test: Keratinocyte differentiation in vitro, involucrin protein by Western blot; format: cell-based; settings: 8 μM
Description: as §2
Total cellular protein was isolated from cultured keratinocytes and involucrin protein levels were assessed by Western blot analysis. The cells were homogenized by sonication, their protein content was determined, and gels were loaded with equal amounts per sample and lane. Western Immunoblotting was performed using 7.5% SDS-PAGE, as described previously (Laemmli, 1970). Following transfer of protein to PVDF membranes, blots were incubated overnight with primary antibody at 4° C. Secondary antibody (peroxidase conjugated anti mouse; Amersham PharmaciaBiotech Inc., Piscataway, N.J.) was applied and blots were incubated at room temperature for 2 hours. Final detection was performed by chemiluminescence (ECL kit; Amersham). Involucrin protein was detected with a monoclonal mouse anti-human involucrin antibody.

[8] = system: hyperplastic epidermis of hairless mice; test: Experimentally induced epidermal hyperplasia: filaggrin/loricrin and PCNA staining; format: in vivo, mouse; settings: 4 mM in acetone topically for three days after induction of hyperplasia
Description: The skin of 6-8 week old hairless mice (Simonsen Laboratories, Gilroy, Calif.) was treated twice a day for 3 days with acetone soaked cotton balls until the transepidermal water loss reached 6-8 mg/cm^2/h. […] At the completion of the experimental treatments, the animals were sacrificed and skin samples were taken and fixed with 4% formaldehyde in phosphate-buffered saline (PBS) and embedded in paraffin. Sections (6 μm) were collected on microscope slides and used for immunohistochemistry. Photographs were taken with a Zeiss microscope and digital images were captured and assembled by appropriate software. Fillagrin and loricrin protein expression were detected by immunohistochemistry using antibodies purchased from BabCo (Richmond, Calif.). Proliferating keratinocytes were quantified in sections by staining with biotinylated anti-proliferating cell nuclear antigen (PCNA) antibody (CalTag Laboratories, Burlingame, Calif.).

[9] = system: epidermal permeability barrier of hairless mice; test: Permeability barrier recovery (TEWL) after barrier disruption; format: in vivo, mouse; settings: for percent barrier recovery: pretreated 4 mM twice daily for three days
Description: Permeability of the epidermal barrier was then experimentally disrupted by the repeated application of cellophane tape, solvent extraction (repeated topical acetone), or by detergent treatment (repeated topical sodium dodecyl sulfate) until the transepidermal water loss (TEWL) reached 6-8 mg/cm^2/h. Recovery of barrier function was determined by measurement of transepidermal water loss (TEWL) with an electrolytic water analyzer (MEECO®, Warrington, Pa.) at 3 and 6 hours after barrier disruption.
Barrier recovery is reported as percent barrier recovery from the initial induced defect.

[10] = 4 mM in acetone, topical, twice a day for 6 days, vs vehicle
[11] = 8 μM vs vehicle (0.05% ethanol), Northern blot

Compound: IL1-β: cytokine used as inflammatory stimulus on cultured keratinocytes
- PPAR-beta/delta mRNA levels relative to untreated control [1]: nearly twice

Compound: C[C@H]1C[C@H]2[C@@H]3CCC4=CC(=O)C=C[C@]4(C)[C@@]3(F)[C@@H](O)C[C@]2(C)[C@@]1(O)C(=O)CCl [clobetasol]
- effect on TPA induced increase in ear thickness (ears of CD-1 mice): anti-inflammatory effect

Compound: Cc1cccc(Nc2cc(Cl)nc(SCC(=O)O)n2)c1C [WY 14643]
- activation of PPAR-alpha (PPAR-alpha [2]): activates

Compound: lipopolysaccharide [reference compound]
- PPAR-beta/delta mRNA levels relative to untreated control [1]: nearly twice

Compound: Cc1cc(SCc2oc(-c3ccc(C(F)(F)F)cc3)nc2C)ccc1OCC(=O)O [GW1514, (2-methyl-4-(((4-methyl-2-(4-trifluoromethylphenyl)-1,3-oxazol-5-yl)methyl)sulfanyl)phenoxy)acetic acid]
- filaggrin immunohistochemical staining ([3]; PPAR-alpha knockout (−/−) mice): increased immunohistochemical staining
- loricrin immunohistochemical staining ([3]; PPAR-alpha knockout (−/−) mice): increased immunohistochemical staining
- filaggrin immunohistochemical staining ([3]; wild type (+/+) mice): increased immunohistochemical staining
- loricrin immunohistochemical staining ([3]; wild type (+/+) mice): increased immunohistochemical staining
- filaggrin immunohistochemical staining [4, 10]: increased levels of immunohistochemical staining
- loricrin immunohistochemical staining [4, 10]: increased levels of immunohistochemical staining
- cell proliferation (PCNA) ([4]; after six days treatment): at normal levels
- expression of in vivo differentiation markers ([4]; after three days of treatment): increased expression
- pool of proliferating cells (PCNA) ([4]; three days after treatment): transiently increased
- PPAR-beta/delta mRNA levels [5, 11]: increased levels
- involucrin mRNA levels [5, 11]: increased levels
- transglutaminase I mRNA levels [5, 11]: increased levels
- induction of differentiation markers compared with high calcium concentrations in culture medium ([5]; 8 μM, FIG. 1): more pronounced
- activation of PPAR-alpha (PPAR-alpha [6]): not also activators of PPAR-alpha
- increase in involucrin protein expression [7]: 5 fold
- effect on TPA induced increase in ear thickness (ears of CD-1 mice): reduced the magnitude
- expression of differentiation marker filaggrin [8]: increase
- expression of differentiation marker loricrin [8]: increase
- number of proliferating nuclei as measured by PCNA staining [8]: did not produce an increase
- recovery of permeability barrier function ([9]; regardless of the method of barrier perturbation (tape, acetone, detergent)): accelerated recovery
- percent barrier recovery ([9]; three hour post tape-strip): ~50%
- percent barrier recovery ([9]; three hours after repeated topical acetone): about 30%

Compound: CCCCCCCCCCCCCC(=O)O[C@@H]1[C@@H](C)[C@@]2(O)[C@@H](C=C(CO)C[C@]3(O)C(=O)C(C)=C[C@@H]23)[C@@H]2C(C)(C)[C@]12OC(C)=O [TPA, 12-O-tetradecanoylphorbol-13-acetate]
- increase in ear thickness following TPA treatment (ears of CD-1 mice; 10 μl of 0.03% TPA in acetone, single topical application): approximately 2 fold
- increase in ear weight following TPA treatment (ears of CD-1 mice; 10 μl of 0.03% TPA in acetone, single topical application, not shown): approximately 2 fold

— patent US20030077298A1, “Activators and ligands of PPAR-beta/delta for the treatment of skin conditions” (The Regents of the University of California, a California …, priority 2001, published 2003)
